Data: patent US10159684B2, “Pharmaceutical compositions for preventing glucocorticoid-induced corneal thinning” (INSERM (INSTITUT NATIONAL DE LA SANTE ET DE LA RECHERCHE …, priority 2013, dated 2018)

Assays:
[1] = test system: mice with MR overexpression in keratinocytes; experiment: MR antagonist given during pregnancy to mice with MR overexpression in keratinocytes (K5-MR); format: in vivo; details: pregnant mice received the MR antagonist all along pregnancy; two litters
From the text: To test whether the reduced epidermal thickness is related to excessive MR activation in this mouse model, we administered an antagonist of the mineralocorticoid receptor during pregnancy of the mice. […] The question arises to know which MR ligand activates the MR in this condition. Because of the absence of HSD2 (the enzyme that inactivates glucocorticoids) in the epidermis (Kenouch S, Lombes M, Delahaye F, Eugene E, Bonvalet J P, Farman N. Human skin as target for aldosterone: coexpression of mineralocorticoid receptors and 11 beta-hydroxysteroid dehydrogenase. J Clin Endocrinol Metab. 1994: 79(5): 1334-41), it is likely that MR bound ligand is endogenous corticosterone, rather than aldosterone.

[2] = test system: human skin explants; experiment: Organotypic culture of human skin explants, epidermal thickness; format: cell-based; details: clobetasol 100 nM plus MR blocker 10 micromolar, 6 days, air/liquid interface; FIG. 3
Experimental: Human skin explants grown as organotypic culture represent a valuable model to study cx vivo epidermal homeostasis. Skin punches (3 mm) were made (accupunch) from human skin (discarded during mammary gland surgery) and placed in organotypic culture as explants (air/liquid interface) in 2 ml DMEM and 10% decomplemented charcoal-stripped foetal bovine scrum to remove steroids for 6 days, in the presence of clobetasol (100 nM) alone or together with spironolactone or canrenoate (potassium canrenoate) (10 micromolar) or solvent alone (0.1% ethanol).

[3] = test system: normal adult mice; experiment: Glucocorticoid-induced reduction of epidermal thickness in normal adult mice, topical application over the back pelage; format: in vivo; details: 7 days; for epidermal thickness, MR antagonist added to clobetasol: spironolactone 10 mM added to clobetasol 0.1 mM solution, FIG. 2
Experimental: In another set of experiments, we used normal adult mice that were treated by application of glucocorticoid (clobetasol, as 0.1 mM ethanol solution) alone or together with spironolactone (10 mM) over the back pelage, during 7 days.

SMILES | epidermal thickness of double-transgenic pups (histology) [1] | skin appearance of double-transgenic pups [1] | thickness of the epidermis, MR blocker together with clobetasol [2] | epidermal thickness, glucocorticoid alone ([3]; clobetasol 0.1 mM ethanol solution, topical over back pelage) | epidermal thickness, MR antagonist added to clobetasol ([3]; topical) | epidermal thickness, MR antagonist added to clobetasol ([3]; topical, listed as Spironolactone) | epidermal thickness, MR antagonist alone ([3]; spironolactone alone, topical)
C[C@]12CCC(=O)C=C1C=C[C@@H]1[C@@H]2CC[C@@]2(C)[C@H]1CC[C@@]2(O)CCC(=O)O [Canrenoate, potassium canrenoate] | histologically normal epidermal thickness | normal skin appearance | increase the thickness of the epidermis | – | – | – | –
C[C@H]1C[C@H]2[C@@H]3CCC4=CC(=O)C=C[C@]4(C)[C@@]3(F)[C@@H](O)C[C@]2(C)[C@@]1(O)C(=O)CCl [Clobetasol, clobetasol] | – | – | – | drastic reduction of epidermal thickness | – | – | –
CC(=O)S[C@@H]1CC2=CC(=O)CC[C@]2(C)[C@H]2CC[C@@]3(C)[C@@H](CC[C@@]34CCC(=O)O4)[C@H]12 [spironolactone, 17-hydroxy-7α-mercapto-3-oxo-17α-pregn-4-ene-21-carboxylic acid γ-lactone acetate] | – | – | increase the thickness of the epidermis | – | reduction in epidermal thickness induced in mice by the glucocorticoid clobetasol was limited | significantly increased epidermal thickness | had no effect
